According to patent publication EP0470323A2, “New salts of the nicotinic acid with aminobenzylic compounds and their pharmaceutical use” (BROMLEY LIMITED, priority 1990, dated 1992):
pEC50: −log10 of the molar value.

What was measured:
HeLa cells (DnA-repair) = test: Mutagenic action of urines of intragastrically treated rats on HeLa cells (DNA repair); type: cell-based, human; settings: urines of rats treated intragastrically with two doses, with metabolic activation, beta-glucoronidase absent
[1] = tested on: aggregation of the platelets caused by the collagene; test: Anti-aggregating ex vivo activity against collagen in the rat; settings: for Latency time (sec.) / Transmittance percentage (maximum aggregation): PRP 2 hours after last treatment, collagene 4 mcg/ml
Description: Six groups of 15 male rats of 200 - 250 g have been used.
The blood taken from the three rats of each group has been mixed and centrifuged during 6 minutes at 1400 rpm, at room temperature. After having taken the plasma full of platelets (PRP) the thereunder floating material has been centrifuged again (4000 rpm during 10 minutes) in order to have the plasma with few platelets (PPP) separated from the balance. The PRP has been diluted with a part of PPP in order to bring the number of platelets to 350 ± 50 x 10³/mm³. The aggregation has been evaluated in accordance with the method of Minsker D.H. and coll. (J. Pharmacol.Exp.Ther. 210 37 1979) by using an ELVI 840 two-channels aggregometer and an Omniscribe recorder B.500. A quantity of 0,25 ml PRP has been used, transferred into the aggregometer for two minutes at 37°C and stirred at 1000 rpm. The light intensity was arranged in such a way, to obtain 0% transmittance with the PRP and 100% with the PPP. After 2′ incubation, by means of microsyringe the collagene was added to the PRP in a volume quantity of 5 mcl with the final concentration of 4 mcg/ml.
From the aggregation trace of the recorder the following data have been evaluated: • a) latent time of the aggregation (seconds between the introductions of collagene and the starting of the aggregation) • b) transmittance increase percentage (maximum aggregation). The same proceeding was repeated for all animals, always by mixing the blood of three rats belonging to the same group and by obtaining in this manner five aggregation curves per group.

[2] = tested on: Hypercholesterolaemia caused by Trit WR1339 in the mouses; test: Hypercholesterolaemia of the mouse caused by Triton WR 1339; type: in vivo; settings: for Tot.Cholesterol M ± E.S. / Tot.Lipids M ± E.S.: 20 hours after Triton WR 1339 i.p.; for Tot.Cholesterol % vs contr. / Tot.Lipids % vs contr.: reduction
Description: The method described by Garattini S. (Arzneim,Forsch 9, 206; 1959) with some modifications has been followed.
The mouses used have been males of 22 to 28 grams body weight, on an empty stomach but with water "ad libitum" since 12 hours. The hyperlipidaemia was induced by means of an intraperitoneum administration of […] of Triton WR 1339, with dosage 300 mg/kg in a physiological solution. The subject products were administered at the same time in clear plain water, always in a volume of […] by means of a gastric probe. The animals were sacrified after 20 hours, by cutting them the carotids. The blood was collected in some plastic test-tubes, and was centrifuged at 3500 rpm for ten minutes. Thereafter the total cholesterol (Sornay R and colleagues, Arzeneim Forsch, 26,885 1976) and the total lipids (Chonhelmer R and colleagues, Biological Chemistry 106, 745, 1934) were determined.

[3] = tested on: Central artery of a rabbit's ear; test: In vitro antispastic action, adrenalin-induced spasm of the perfused isolated artery; settings: spasm induced by Adrenalin, n=4, listed as Compound accord.Ex.1
Description: An "in vitro" method has been used, according to which the withdrawal of the central artery of a rabbit's ear with the relevant nervous connections and the equipment of an appropriate seat for secluded organs was designed (Fleckenstein A., British Journal of Pharmacology 7, 533, 1952).
On the artery they did install a three-ways tube, connected with a peristaltic pump and with a mercury manometer to record the perfusion pressure. The artery was perfused with a rebs liquid at the speed of 2,5 ml/minute. The contractions were induced by injecting into the vessel 0,1 ml adrenalin at the concentration of 1 mcg/ml. The compound according to the example 1 has been added to the bath at concentrations of 0,5 - 1 - 2 uM, five minutes before the adrenalin (four preparations per concentration). As comparison drugs, chlorhydra ted Buflomedil and Papaverin have been used. The activity of the material under investigation has been appreciated in terms of percentages referring to the concentration induced by the Adrenalin (and expressed with DE₅₀) and the relevant forbidding.

[4] = tested on: HeLa human cells cultures; test: DNA repair synthesis (tritiated thymidine incorporation) in HeLa cell cultures; type: cell-based; settings: vs controls treated with solvent, dosages tested
Source text: The compound according to the Example 1 has been tested, in order to check and see its mutagenic effects.

[5] = tested on: skin temperature of the mouse's paw; test: Peripheral vessel-dilating activity in the mouse (skin temperature of hind paws); type: in vivo; settings: for Temperature (°C) of the hind paws (n=10): intravenous; for Temperature (°C) of the hind paws: oral
Description: The method of Richter W. (Acta Pharm. Toxicol. 21, 91; 1974) was used; it consists in determining, at fixed time intervals after the treatment, the skin temperature of the mouse's paw, by keeping the animals in rooms at a constant temperature of 21°C.
Some groups of ten male mouses each have been used; the weight of each animal was 30 g approximately.
The compound according to the Example 1 has been tested "per os" at three basic levels of the doses (0,125 - 0,25 - 0,5 mM/kg) and by intravenous injection at two dose levels (0,015 and 0,03 mM/kg), in comparison with one sole dose of Papaverin and chlorhydrated Buflomedil (0,5 mM/kg "per os" and 0,03m M/kg intravenous). The observation of the skin temperature at the mouse's paw was made before the treatment, 30, 60 and 120 minutes after the "per os" treatment, […] (A-Hl Ellab) connected with an Ellab electric recorder. Of each animal the temperature of both hind paws has been measured, and the values obtained have been averaged .

[6] = rat, 1,00 mM/kg os for 4 days, listed as Compound according to the Example N° 1

## COc1cc(OC)c(C(=O)CCCN2CCCC2)c(OC)c1 [Example 1, 4-(1 pyrrholydinyl)-1-(2,4,6 trimethoxypheniyl)-1-nicotinized butanone]
HeLa cells (DnA-repair)
  mutagenic action: any mutagenic action did not result
[1]; rat, 0,25 mM/kg os for 4 days
  Latency time, % variation vs controls: +15,7%
  Transmittance percentage, % variation vs controls: -14,4%
  Latency time (sec.): 43,4 ± 4,2 sec.
  Transmittance percentage (maximum aggregation): 67,3 ± 4,4%
[1]; rat, 0,50 mM/kg os for 4 days
  Latency time, % variation vs controls: +38,7%
  Transmittance percentage, % variation vs controls: -34,3%
  Latency time (sec.): 52,0 ± 3,5 sec.
  Transmittance percentage (maximum aggregation): 51,6 ± 4,0%
[1]; [6]
  Latency time (sec.): 64,5 ± 5,4 sec.
  Transmittance percentage (maximum aggregation): 30,2 ± 3,6%
  Latency time, % variation vs controls: +72,0%
  Transmittance percentage, % variation vs controls: -61,6%
[2]; dosage of 2 mM/kg weight
  reduction in both parameters (total cholesterol and total lipids): 43%
[2]; dosage of 5 mM/kg weight
  reduction in both parameters (total cholesterol and total lipids): ~60%
[2]; dose 1 mM/kg per os
  Tot.Cholesterol M ± E.S.: 221 ± 18 mg/100 ml
  Tot.Lipids M ± E.S.: 1721 ± 164 mg/100 ml
  Tot.Cholesterol % vs contr.: 38,3%
  Tot.Lipids % vs contr.: 29,3%
[2]; dose 2 mM/kg per os
  Tot.Cholesterol M ± E.S.: 191 ± 15 mg/100 ml
  Tot.Lipids M ± E.S.: 1315 ± 115 mg/100 ml
  Tot.Cholesterol % vs contr.: 46,6%
  Tot.Lipids % vs contr.: 46,0%
[2]; dose 4 mM/kg per os
  Tot.Cholesterol M ± E.S.: 133 ± 12 mg/100 ml
  Tot.Lipids M ± E.S.: 1008 ± 117 mg/100 ml
  Tot.Cholesterol % vs contr.: 62,8%
  Tot.Lipids % vs contr.: 58,6%
[3]; concentration 0,5 μ M
  % inhibi-tions of the con-tractions: 45%
[3]; concentration 1,0 μ M
  % inhibi-tions of the con-tractions: 70%
[3]; concentration 2,0 μ M
  % inhibi-tions of the con-tractions: 94%
[3]; read-out: DE50 (the source's name)
  pEC50: 6.24
[4]
  quantity of tritium-added Thymidine included into the DNA of the cells (repair synthese): did not determine any variation
[5]; dose 0,015 mM/kg/iv, 0 minutes (before the treatment)
  Temperature (°C) of the hind paws (n=10): 24,3 ± 0,25 °C
[5]; dose 0,015 mM/kg/iv, 30 minutes from the treatment
  Temperature (°C) of the hind paws (n=10): 25,9 ± 0,18 °C
[5]; dose 0,015 mM/kg/iv, 60 minutes from the treatment
  Temperature (°C) of the hind paws (n=10): 25,8 ± 0,30 °C
[5]; dose 0,015 mM/kg/iv, 120 minutes from the treatment
  Temperature (°C) of the hind paws (n=10): 25,4 ± 0,22 °C
[5]; dose 0,030 mM/kg/iv, 0 minutes (before the treatment), listed as Compound according to the Ex.1
  Temperature (°C) of the hind paws (n=10): 24,2 ± 0,20 °C
[5]; dose 0,030 mM/kg/iv, 30 minutes from the treatment, listed as Compound according to the Ex.1
  Temperature (°C) of the hind paws (n=10): 26,7 ± 0,31 °C
[5]; dose 0,030 mM/kg/iv, 60 minutes from the treatment, listed as Compound according to the Ex.1
  Temperature (°C) of the hind paws (n=10): 26,5 ± 0,27 °C
[5]; dose 0,030 mM/kg/iv, 120 minutes from the treatment, listed as Compound according to the Ex.1
  Temperature (°C) of the hind paws (n=10): 26,3 ± 0,30 °C
[5]; dose 0,125 mM/kg/os, 0 minutes (before the treatment)
  Temperature (°C) of the hind paws: 24,3 ± 0,24 °C
[5]; dose 0,125 mM/kg/os, 30 minutes from the treatment
  Temperature (°C) of the hind paws: 24,7 ± 0,32 °C
[5]; dose 0,125 mM/kg/os, 60 minutes from the treatment
  Temperature (°C) of the hind paws: 024,9 ± 0,30 °C
[5]; dose 0,125 mM/kg/os, 120 minutes from the treatment
  Temperature (°C) of the hind paws: 25,2 ± 0,35 °C
[5]; dose 0,250 mM/kg/os, 0 minutes (before the treatment)
  Temperature (°C) of the hind paws: 24,7 ± 0,20 °C
[5]; dose 0,250 mM/kg/os, 30 minutes from the treatment
  Temperature (°C) of the hind paws: 25,2 ± 0,44 °C
[5]; dose 0,250 mM/kg/os, 60 minutes from the treatment
  Temperature (°C) of the hind paws: 25,8 ± 0,32 °C
[5]; dose 0,250 mM/kg/os, 120 minutes from the treatment
  Temperature (°C) of the hind paws: 25,5 ± 0,50 °C
[5]; dose 0,500 mM/kg/os, 0 minutes (before the treatment), listed as Compound according to the Example 1
  Temperature (°C) of the hind paws: 24,6 ± 0,25 °C
[5]; dose 0,500 mM/kg/os, 30 minutes from the treatment, listed as Compound according to the Example 1
  Temperature (°C) of the hind paws: 26,8 ± 0,30 °C
[5]; dose 0,500 mM/kg/os, 60 minutes from the treatment, listed as Compound according to the Example 1
  Temperature (°C) of the hind paws: 27,5 ± 0,40 °C
[5]; dose 0,500 mM/kg/os, 120 minutes from the treatment, listed as Compound according to the Example 1
  Temperature (°C) of the hind paws: 27,2 ± 0,45 °C
